This note sets out measurements from patent US12539292B2, “BRM targeting compounds and associated methods of use” (Arvinas Operations, Inc., priority 2018, dated 2026).

Read-outs that look alike come from different tables or passages of the source. Bounds are passed on as bounds.

The assay concerns the target T1, BRM (Homo sapiens, UniProt P51531).
T1 construct: In-Cell Western Screen of BRM Degradation in SW1573 Cells; endogenous in cells; host or cells: SW1573
Kind of assay: In-cell Western screen of BRM degradation in SW1573 cells (Dmax and DC50). The class given is cell-based. In short, it runs like this: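 SW1573, overnight cpd exposure (18-20 h), 0.1% DMSO final. PFA fix, 0.5% Triton permeabilization, block; IR secondaries at 800/680 nm. Odyssey read → Dmax, DC50.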

Where [1] appears, read: BRM degradation, SW1573 cells, Table 2D, read-out: *DC50.
Setting [2] is: BRM degradation, SW1573 cells, read-out: DC50.
The mark [3] stands for this setting: BRM degradation, SW1573 cells, Table 2D, read-out: **Dmax (%) (% degraded).
The mark [4] stands for this setting: BRM degradation, SW1573 cells, tested at the top concentration of between 0.3 and 10 μM, read-out: Dmax (%) (% degraded).

T1 sequence (P51531 whole entry): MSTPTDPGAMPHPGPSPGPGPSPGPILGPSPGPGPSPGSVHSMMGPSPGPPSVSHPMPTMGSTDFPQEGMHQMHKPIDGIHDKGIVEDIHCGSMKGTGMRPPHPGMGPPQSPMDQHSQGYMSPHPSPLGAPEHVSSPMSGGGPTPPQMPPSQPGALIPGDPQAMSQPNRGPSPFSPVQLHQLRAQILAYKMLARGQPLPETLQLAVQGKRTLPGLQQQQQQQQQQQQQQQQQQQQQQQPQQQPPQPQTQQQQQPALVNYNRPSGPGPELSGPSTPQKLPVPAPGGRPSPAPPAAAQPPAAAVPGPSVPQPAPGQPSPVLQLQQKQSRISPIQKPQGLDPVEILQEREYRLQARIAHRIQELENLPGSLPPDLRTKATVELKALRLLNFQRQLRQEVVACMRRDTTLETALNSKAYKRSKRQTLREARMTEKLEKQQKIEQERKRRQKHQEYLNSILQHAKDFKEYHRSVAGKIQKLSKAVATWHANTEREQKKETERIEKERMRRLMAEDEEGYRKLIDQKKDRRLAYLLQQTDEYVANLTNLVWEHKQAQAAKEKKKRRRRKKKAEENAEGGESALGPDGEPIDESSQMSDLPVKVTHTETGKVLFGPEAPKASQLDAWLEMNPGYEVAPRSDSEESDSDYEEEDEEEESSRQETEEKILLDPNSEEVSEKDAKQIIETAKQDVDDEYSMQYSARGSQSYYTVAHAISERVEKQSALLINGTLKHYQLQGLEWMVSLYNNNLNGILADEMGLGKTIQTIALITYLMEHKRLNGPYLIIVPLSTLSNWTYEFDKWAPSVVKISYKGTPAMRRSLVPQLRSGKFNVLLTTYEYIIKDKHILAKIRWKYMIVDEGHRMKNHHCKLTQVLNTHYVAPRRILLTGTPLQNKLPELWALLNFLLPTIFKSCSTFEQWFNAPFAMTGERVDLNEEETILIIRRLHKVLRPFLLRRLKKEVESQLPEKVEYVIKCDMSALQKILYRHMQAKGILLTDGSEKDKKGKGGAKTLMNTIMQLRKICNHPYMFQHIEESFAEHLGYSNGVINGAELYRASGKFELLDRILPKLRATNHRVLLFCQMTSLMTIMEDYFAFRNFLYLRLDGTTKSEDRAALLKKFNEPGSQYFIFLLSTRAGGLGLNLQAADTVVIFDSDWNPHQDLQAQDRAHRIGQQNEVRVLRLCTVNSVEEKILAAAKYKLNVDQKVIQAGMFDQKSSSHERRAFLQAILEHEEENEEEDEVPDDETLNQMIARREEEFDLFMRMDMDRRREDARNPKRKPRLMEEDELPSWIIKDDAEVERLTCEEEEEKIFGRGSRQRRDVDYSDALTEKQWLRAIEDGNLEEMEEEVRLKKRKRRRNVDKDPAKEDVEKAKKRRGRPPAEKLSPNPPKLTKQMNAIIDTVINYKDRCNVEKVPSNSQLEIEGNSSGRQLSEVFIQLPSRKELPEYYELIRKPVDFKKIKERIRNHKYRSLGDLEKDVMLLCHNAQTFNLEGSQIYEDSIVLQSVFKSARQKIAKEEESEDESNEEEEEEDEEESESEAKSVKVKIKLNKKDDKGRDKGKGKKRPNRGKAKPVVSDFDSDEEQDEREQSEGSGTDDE

On to `Cc1ncsc1-c1ccc([C@H](C)NC(=O)[C@@H]2C[C@@H](O)CN2C(=O)[C@H](c2cc(OCCC3CCN(C[C@H]4C[C@H](Oc5cc(N6C7CCC6CN(c6cc(-c8ccccc8O)nnc6N)C7)ccn5)C4)CC3)no2)C(C)C)c(F)c1F` [compound 587, (2S,4R)-1-((2S)-2-(3-(2-(1-(((1r,3S)-3-((4-(3-(3-amino-6-(2-hydroxyphenyl)pyridazin-4-yl)-3,8-diazabicyclo[3.2.1]octan-8-yl)pyridin-2-yl)oxy)cyclobutyl)methyl)piperidin-4-yl)ethoxy)isoxazol-5-yl)-3-methylbutanoyl)-N-((S)-1-(2,3-difluoro-4-(4-methylthiazol-5-yl)phenyl)ethyl)-4-hydroxypyrrolidine-2-carboxamide], for which the DC50 – broadly, the midpoint of the concentration-degradation curve – under setting [1] is more than 30 nM.

As for `Cc1ncsc1-c1ccc([C@H](C)NC(=O)[C@@H]2C[C@@H](O)CN2C(=O)[C@@H](c2cc(N3CCC(CN4CCC(O[C@H]5C[C@H](Oc6cc(N7C8CCC7CN(c7cc(-c9ccccc9O)nnc7N)C8)ccn6)C5)CC4)CC3)no2)C(C)C)c(F)c1F` [compound 679, (2S,4R)-1-((2R)-2-(3-(4-((4-((1r,3r)-3-((4-(3-(3-amino-6-(2-hydroxyphenyl)pyridazin-4-yl)-3,8-diazabicyclo[3.2.1]octan-8-yl)pyridin-2-yl)oxy)cyclobutoxy)piperidin-1-yl)methyl)piperidin-1-yl)isoxazol-5-yl)-3-methylbutanoyl)-N-((S)-1-(2,3-difluoro-4-(4-methylthiazol-5-yl)phenyl)ethyl)-4-hydroxypyrrolidine-2-carboxamide], the DC50 under setting [2] is less than 2.5 nM. Under “BRM degradation, SW1573 cells, read-out: Dmax (% degraded)”, the Dmax (commonly the largest share of the target that was removed) is more than 75%.

Consider `Cc1ncsc1-c1ccc([C@H](CCCC(N)=O)NC(=O)[C@@H]2C[C@@H](O)CN2C(=O)[C@@H](c2cc(OCCN3CCC(O[C@H]4C[C@H](Oc5cc(N6C7CCC6CN(c6cc(-c8ccccc8O)nnc6N)C7)ccn5)C4)CC3)no2)C(C)C)cc1` [compound 556, (2S,4R)-N-((S)-5-amino-1-(4-(4-methylthiazol-5-yl)phenyl)-5-oxopentyl)-1-((2R)-2-(3-(2-(4-((1r,3R)-3-((4-(3-(3-amino-6-(2-hydroxyphenyl)pyridazin-4-yl)-3,8-diazabicyclo[3.2.1]octan-8-yl)pyridin-2-yl)oxy)cyclobutoxy)piperidin-1-yl)ethoxy)isoxazol-5-yl)-3-methylbutanoyl)-4-hydroxypyrrolidine-2-carboxamide], for which the Dmax under setting [3] is more than 75%. Moreover, under setting [1], the DC50 is less than 2.5 nM.

On to `Cc1nccn1-c1ccc([C@H](C)NC(=O)[C@@H]2C[C@@H](O)CN2C(=O)C(c2cc(N3CCC(CN4CCC(O[C@H]5C[C@H](Oc6cc(N7C8CCC7CN(c7cc(-c9ccccc9O)nnc7N)C8)ccn6)C5)CC4)CC3)no2)C(C)C)cc1` (stereo partly drawn) [compound 607, (2S,4R)-1-((2R)-2-(3-(4-((4-((1r,3r)-3-((4-(3-(3-amino-6-(2-hydroxyphenyl)pyridazin-4-yl)-3,8-diazabicyclo[3.2.1]octan-8-yl)pyridin-2-yl)oxy)cyclobutoxy)piperidin-1-yl)methyl)piperidin-1-yl)isoxazol-5-yl)-3-methylbutanoyl)-4-hydroxy-N-((S)-1-(4-(2-methyl-1H-imidazol-1-yl)phenyl)ethyl)pyrrolidine-2-carboxamide], for which, under setting [3], the Dmax was more than 75%. For the same compound, the DC50 under setting [1] is less than 2.5 nM.

With `Cc1ncn(C)c1-c1ccc([C@H](C)NC(=O)[C@@H]2C[C@@H](O)CN2C(=O)[C@@H](c2cc(OCCN3CCC(O[C@H]4C[C@H](Oc5cc(N6C7CCC6CN(c6cc(-c8ccccc8O)nnc6N)C7)ccn5)C4)CC3)no2)C(C)C)cc1` [compound 366, (2S,4R)-1-((2R)-2-(3-(2-(4-((1r,3R)-3-((4-(3-(3-amino-6-(2-hydroxyphenyl)pyridazin-4-yl)-3,8-diazabicyclo[3.2.1]octan-8-yl)pyridin-2-yl)oxy)cyclobutoxy)piperidin-1-yl)ethoxy)isoxazol-5-yl)-3-methylbutanoyl)-N-((S)-1-(4-(1,4-dimethyl-1H-imidazol-5-yl)phenyl)ethyl)-4-hydroxypyrrolidine-2-carboxamide], the Dmax (SW1573, % degraded, when tested at the top concentration of between 0.3 and 10 μM, read-out: BRM Dmax (%)) is more than 75%. Moreover, the DC50 (target protein degradation, read-out: BRM DC50) was 2.5 to 10 nM.

For `Cc1ncsc1-c1ccc([C@H](C)NC(=O)[C@@H]2C[C@@H](O)CN2C(=O)[C@@H](c2cc(OCC[C@@H]3CCN(C[C@H]4C[C@H](Oc5cc(N6C7CCC6CN(c6cc(-c8ccccc8O)nnc6N)C7)ccn5)C4)[C@H](C)C3)no2)C(C)C)cc1` (racemic) [compound 580, (2S,4R)-1-((2R)-2-(3-(2-((2R,4R)-1-(((1r,3R)-3-((4-(3-(3-amino-6-(2-hydroxyphenyl)pyridazin-4-yl)-3,8-diazabicyclo[3.2.1]octan-8-yl)pyridin-2-yl)oxy)cyclobutyl)methyl)-2-methylpiperidin-4-yl)ethoxy)isoxazol-5-yl)-3-methylbutanoyl)-4-hydroxy-N-((S)-1-(4-(4-methylthiazol-5-yl)phenyl)ethyl)pyrrolidine-2-carboxamide], the maximal degradation (Dmax) under setting [3] is more than 75%. The DC50 under setting [1] is less than 2.5 nM.

For `CC(C)C(C(=O)N1C[C@H](O)C[C@H]1C(=O)N[C@@H](C)c1ccc(-c2scnc2CO)cc1)c1cc(OCCN2CCN(CCOc3cc(N4C5CCC4CN(c4cc(-c6ccccc6O)nnc4N)C5)ccn3)CC2)no1` (stereo partly drawn) [compound 168, (2S,4R)-1-(2-(3-(2-(4-(2-((4-(3-(3-amino-6-(2-hydroxyphenyl)pyridazin-4-yl)-3,8-diazabicyclo[3.2.1]octan-8-yl)pyridin-2-yl)oxy)ethyl)piperazin-1-yl)ethoxy)isoxazol-5-yl)-3-methylbutanoyl)-4-hydroxy-N-((S)-1-(4-(4-(hydroxymethyl)thiazol-5-yl)phenyl)ethyl)pyrrolidine-2-carboxamide], under setting [2], the DC50 was less than 2.5 nM. Further, under setting [4], the Dmax was more than 75%.

Consider `Cc1ncsc1-c1ccc([C@H](C)NC(=O)[C@@H]2C[C@@H](O)CN2C(=O)[C@@H](NC(=O)Cc2ccc(N3CCN(CCO[C@H]4C[C@H](Oc5cc(N6C7CCC6CN(c6cc(-c8ccccc8O)nnc6N)C7)ccn5)C4)CC3)nc2)C(C)(C)C)cc1` [compound 58, (2S,4R)-1-((2S)-2-(2-(6-(4-(2-((1r,3r)-3-((4-(3-(3-amino-6-(2-hydroxyphenyl)pyridazin-4-yl)-3,8-diazabicyclo[3.2.1]octan-8-yl)pyridin-2-yl)oxy)cyclobutoxy)ethyl)piperazin-1-yl)pyridin-3-yl)acetamido)-3,3-dimethylbutanoyl)-4-hydroxy-N-((S)-1-(4-(4-methylthiazol-5-yl)phenyl)ethyl)pyrrolidine-2-carboxamide], for which, under setting [2], the DC50 was more than 30 nM. For the same compound, where the note is “BRM degradation, SW1573 cells, when tested at the top concentration of between 0.3 and 10 μM, read-out: Dmax (%) (% degraded)”, the Dmax lay in the range of 50 to 75%.

`Cc1ncsc1-c1ccc([C@H](C)NC(=O)[C@@H]2C[C@@H](O)CN2C(=O)[C@@H](c2cc(OC/C=C/c3ccc(O[C@H]4C[C@H](Oc5cc(N6C7CCC6CN(c6cc(-c8ccccc8O)nnc6N)C7)ccn5)C4)cn3)no2)C(C)C)cn1` [compound 207, (2S,4R)-1-((2R)-2-(3-(((E)-3-(5-((1r,3R)-3-((4-(3-(3-amino-6-(2-hydroxyphenyl)pyridazin-4-yl)-3,8-diazabicyclo[3.2.1]octan-8-yl)pyridin-2-yl)oxy)cyclobutoxy)pyridin-2-yl)allyl)oxy)isoxazol-5-yl)-3-methylbutanoyl)-4-hydroxy-N-((S)-1-(6-(4-methylthiazol-5-yl)pyridin-3-yl)ethyl)pyrrolidine-2-carboxamide]: under setting [2], the DC50 was less than 2.5 nM. Also, the Dmax under setting [4] was more than 75%.
